# Tests used:
# Assay type in all cases: in vivo
# [1] = tested on: corn (Zea mays); experiment: Test A pre-/postemergence plant response
# Summary of the method: (§1)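 Greenhouse pot test: loam–sand soil; pre- and postemergence sprays applied same day; post plants 2–10 cm, 1–2 leaves. Readout ~10 d, visual % injury vs untreated (0 = none, 100 = complete control).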
# [2] = tested on: giant foxtail (Setaria faberi); experiment: Test A pre-/postemergence plant response
# Summary of the method: as §1
# [3] = tested on: Italian ryegrass (Lolium multiflorum); experiment: Test B pre-/postemergence plant response; settings: for Ryegrass, Italian plant response rating: 8 g ai/ha
# Summary of the method: (§2)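 Visual scoring from 0 (no effect) to 100 (complete control) against untreated controls was done 13 to 15 days after greenhouse treatment. Chemicals were formulated in a surfactant-containing non-phytotoxic solvent and applied to soil preemergence or to 1- to 4-leaf (2-18 cm) plants postemergence.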
# [4] = tested on: bermudagrass (Cynodon dactylon); experiment: Test B pre-/postemergence plant response; settings: for Bermudagrass plant response rating: 8 g ai/ha
# Summary of the method: as §2
# [5] = tested on: common (oilseed) sunflower (Helianthus annuus); experiment: Test B pre-/postemergence plant response; settings: Preemergence
# Summary of the method: as §2
# [6] = tested on: eastern black (E.B.) nightshade (Solanum ptycanthum); experiment: Test B pre-/postemergence plant response; settings: Preemergence
# Summary of the method: as §2
# [7] = tested on: johnsongrass (Sorghum halepense); experiment: Test B pre-/postemergence plant response; settings: for Johnsongrass plant response rating: 8 g ai/ha
# Summary of the method: as §2
# [8] = tested on: kochia (Kochia scoparia); experiment: Test B pre-/postemergence plant response; settings: for Kochia plant response rating: 8 g ai/ha
# Summary of the method: as §2
# [9] = tested on: soybean (Glycine max); experiment: Test B pre-/postemergence plant response
# Summary of the method: as §2
# [10] = tested on: velvetleaf (Abutilon theophrasti); experiment: Test B pre-/postemergence plant response; settings: for Velvetleaf plant response rating: 8 g ai/ha
# Summary of the method: as §2
# [11] = tested on: wheat (Triticum aestivum); experiment: Test B pre-/postemergence plant response; settings: for Wheat plant response rating: 8 g ai/ha
# Summary of the method: as §2
# [12] = tested on: yellow nutsedge (Cyperus esculentus); experiment: Test B pre-/postemergence plant response; settings: for Nutsedge, Yellow plant response rating: 8 g ai/ha
# Summary of the method: as §2
# [13] = Postemergence, 31 g ai/ha, 0 to 100 scale, 0 no effect, 100 complete control
# [14] = Postemergence, 125 g ai/ha, 0 to 100 scale, 0 no effect, 100 complete control
# [15] = Preemergence, 31 g ai/ha, 0 to 100 scale, 0 is no effect, 100 is complete control
# [16] = Preemergence, 125 g ai/ha, 0 to 100 scale (0 no effect, 100 complete control)
# [17] = Postemergence, 16 g ai/ha, scale 0 to 100
# [18] = Postemergence, 31 g ai/ha, scale 0 to 100
# [19] = Postemergence, 62 g ai/ha, scale 0 to 100, 0 no effect, 100 complete control
# [20] = Preemergence, 16 g ai/ha, scale 0 to 100 (0 no effect, 100 complete control)
# [21] = Preemergence, 31 g ai/ha, scale 0 to 100 (0 no effect, 100 complete control)
# [22] = Preemergence, 62 g ai/ha, scale 0 to 100
# [23] = Preemergence, 31 g ai/ha, 0 to 100 scale, 0 no effect, 100 complete control
# [24] = 16 g ai/ha, scale 0 to 100 (0 no effect, 100 complete control)
# [25] = 31 g ai/ha, scale 0 to 100 (0 no effect, 100 complete control)
# [26] = Preemergence, 62 g ai/ha, 0 to 100 scale, 0 no effect, 100 complete control
smiles,measurement,setting,value
Cn1ncc(O)c(-n2nc(-c3ccc(Cl)cc3)cc2C2CC2)c1=O [Compound 45],"Plant response rating, Corn",[1]; [13],40
same,"Plant response rating, Corn",[1]; [14],80
same,"Plant response rating, Corn",[1]; [15],0
same,"Plant response rating, Corn",[1]; [16],60
same,"Plant response rating, Foxtail, Giant",[2]; [13],90
same,"Plant response rating, Foxtail, Giant",[2]; [14],100
same,"Plant response rating, Foxtail, Giant",[2]; [15],90
same,"Plant response rating, Foxtail, Giant",[2]; [16],100
same,"Ryegrass, Italian plant response rating","[3]; postemergence, 0-100 scale",70
same,"Plant response rating, Ryegrass, Italian",[3]; [17],90
same,"Plant response rating, Ryegrass, Italian",[3]; [18],100
same,"Plant response rating, Ryegrass, Italian",[3]; [19],100
same,"Plant response rating, Ryegrass, Italian",[3]; [20],90
same,"Plant response rating, Ryegrass, Italian",[3]; [21],100
same,"Plant response rating, Ryegrass, Italian",[3]; [22],100
same,"Ryegrass, Italian plant response rating","[3]; Preemergence, scale 0 to 100",0
same,Bermudagrass plant response rating,"[4]; postemergence, 0-100 scale",60
same,"Plant response rating, Bermudagrass",[4]; [17],95
same,"Plant response rating, Bermudagrass",[4]; [18],98
same,"Plant response rating, Bermudagrass",[4]; [19],98
same,Bermudagrass plant response rating,"[4]; Preemergence, scale 0 to 100 (0 no effect, 100 complete control)",0
same,"Plant response rating, Bermudagrass",[4]; [20],0
same,"Plant response rating, Bermudagrass",[4]; [23],0
same,"Plant response rating, Bermudagrass",[4]; [22],0
same,"Plant response rating, Sunflower",[5]; [24],0
same,"Plant response rating, Sunflower",[5]; [25],0
same,"Plant response rating, Sunflower","[5]; 62 g ai/ha, scale 0 to 100",0
same,Sunflower plant response rating,"[5]; 8 g ai/ha, scale 0 to 100",0
same,"Plant response rating, Nightshade, E. B.",[6]; [24],0
same,"Plant response rating, Nightshade, E. B.",[6]; [25],0
same,"Plant response rating, Nightshade, E. B.","[6]; 62 g ai/ha, scale 0 to 100",0
same,"Nightshade, E. B. plant response rating","[6]; 8 g ai/ha, scale 0 to 100",0
same,Johnsongrass plant response rating,"[7]; postemergence, 0-100 scale",60
same,"Plant response rating, Johnsongrass",[7]; [17],65
same,"Plant response rating, Johnsongrass",[7]; [18],65
same,"Plant response rating, Johnsongrass",[7]; [19],70
same,"Plant response rating, Johnsongrass",[7]; [20],20
same,"Plant response rating, Johnsongrass",[7]; [23],75
same,"Plant response rating, Johnsongrass",[7]; [22],98
same,Johnsongrass plant response rating,"[7]; Preemergence, scale 0 to 100",15
same,Kochia plant response rating,"[8]; postemergence, 0-100 scale",0
same,"Plant response rating, Kochia",[8]; [17],0
same,"Plant response rating, Kochia",[8]; [18],0
same,"Plant response rating, Kochia",[8]; [19],0
same,"Plant response rating, Kochia",[8]; [20],0
same,"Plant response rating, Kochia",[8]; [23],0
same,"Plant response rating, Kochia",[8]; [22],0
same,Kochia plant response rating,"[8]; Preemergence, scale 0 to 100",0
same,Soybean plant response rating,"[9]; 8 g ai/ha, postemergence, 0-100 scale",0
same,"Plant response rating, Soybean",[9]; [17],0
same,"Plant response rating, Soybean",[9]; [18],0
same,"Plant response rating, Soybean",[9]; [19],0
same,"Plant response rating, Soybean",[9]; [20],0
same,"Plant response rating, Soybean",[9]; [22],65
same,Velvetleaf plant response rating,"[10]; postemergence, 0-100 scale",0
same,"Plant response rating, Velvetleaf",[10]; [17],0
same,"Plant response rating, Velvetleaf",[10]; [18],0
same,"Plant response rating, Velvetleaf",[10]; [19],0
same,"Plant response rating, Velvetleaf",[10]; [20],0
same,"Plant response rating, Velvetleaf",[10]; [21],0
same,"Plant response rating, Velvetleaf",[10]; [26],0
same,Velvetleaf plant response rating,"[10]; Preemergence, scale 0 to 100",0
same,Wheat plant response rating,"[11]; postemergence, 0-100 scale",60
same,"Plant response rating, Wheat",[11]; [17],85
same,"Plant response rating, Wheat",[11]; [18],85
same,"Plant response rating, Wheat",[11]; [19],98
same,"Plant response rating, Wheat",[11]; [20],30
same,"Plant response rating, Wheat",[11]; [21],70
same,"Plant response rating, Wheat",[11]; [26],95
same,Wheat plant response rating,"[11]; Preemergence, scale 0 to 100",0
same,"Nutsedge, Yellow plant response rating","[12]; postemergence, 0-100 scale",0
same,"Plant response rating, Nutsedge, Yellow",[12]; [17],0
same,"Plant response rating, Nutsedge, Yellow",[12]; [18],0
same,"Plant response rating, Nutsedge, Yellow",[12]; [19],0
same,"Plant response rating, Nutsedge, Yellow",[12]; [20],0
same,"Plant response rating, Nutsedge, Yellow",[12]; [21],0
same,"Plant response rating, Nutsedge, Yellow",[12]; [22],0
same,"Nutsedge, Yellow plant response rating","[12]; Preemergence, scale 0 to 100",0

# Source: US20100267561A1, “HERBICIDAL PYRIDAZINONE DERIVATIVES” (priority 2007, published 2010)
